[invAb] = inverted abasic unit; m = 2'-O-methyl; r = 2'-OH (RNA); f = 2'-fluoro
Assays:
CTGF mRNA [1] = test: CTGF mRNA knockdown (Taqman RT-PCR) after siNA transfection of human NHLF cells; assay type: cell-based; details: 10 nM siNA, 24 hrs, average of 3 experiments, vs non-targeting control
Description: NHLF (Normal human lung fibroblasts; Lonza cat# CC-2512): Cells were cultured at 37° C. in the presence of 5% CO2 and grown in Fibroblast Basal Medium (Lonza cat# CC-3132) supplemented with 2% FBS and growth factors (provided with the kit) and 100 μg/mL of streptomycin and 100 U/mL penicillin.
(§1) Cells were plated in all wells of a tissue-culture treated, 96-well plate at a final count of 5000 cells/well in […], of the appropriate culture media. The cells were cultured for 24 hours after plating at 37° C. in the presence of 5% CO2.
(§2) After 24 hours, complexes containing siNA and RNAiMax were created as follows: A solution of RNAiMax diluted 33-fold in OPTI-MEM was prepared. In parallel, solutions of the siNAs for testing were prepared to a final concentration of 120 nM in OPTI-MEM. After incubation of RNAiMax/OPTI-MEM solution at room temperature for 5 min, an equal volume of the siNA solution and the RNAiMax solution were added together for each of the siNAs.
(§3) This solution was incubated at room temperature for 20 minutes. After incubation, 20 uL of the solution was added to each of the relevant wells. The final concentration of siNA in each well was 10 nM and the final volume of RNAiMax in each well was 0.3 ul.
(§4) The time of incubation with the RNAiMax-siNA complexes was 24 hours and there was no change in media between transfection and harvesting, unless otherwise indicated.
(§5) RNA was extracted from a 96-well plate using the TaqMan® Gene Expression Cells-to-CT™ Kit (Cat# 4399002) with a modified protocol. Briefly, a 60 uL (1 plate) or 110 uL (2 plates) of the Lysis Solution with DNase I was dispensed into each well of the Lysis Buffer Plate (twin.tec full skirt plate). The lysis buffer and stop plates were stored at 4° C. until the cells were washed.
(§6) The plate was spun at 1100 rpm for 5 minutes. The culture medium was aspirated and discarded from the wells of the culture plate. The lysis was performed automatically using a BioMek FX instrument and method. After the Biomek method was completed, the lysis plate was incubated for 2 min. at room temperature. The lysis plate can be stored for 2 hours at 4° C., or at −20° C. or −80° C. for two months.
(§7) Each well of the reverse transcription plate required 10 uL of 2× reverse transcriptase Buffer, 1 uL of 20× reverse transcription enzyme and 2 uL of nuclease-free water. The reverse transcription master mix was prepared by mixing 2× reverse transcription buffer, 20× reverse transcription enzyme mix, and nuclease-free water. 13 uL of the reverse transcription master mix was dispensed into each well of the reverse transcription plate (semi-skirted). A separate reverse transcription plate was prepared for each cell plate. The plate was loaded onto a Biomek NX or Biomek FX Dual -96 and the Biomek method was run. The program is programmed to automatically added 7 uL of lysate from the cell lysis procedure described above into each well of the reverse transcription plate. The plate is sealed and spun on a centrifuge (1000 rpm for 30 seconds) to settle the contents to the bottom of the reverse transcription plate. The plate is placed in a thermocycler at 37° C. for 60 min, 95° C. for 5 min, and 4° C. until the plate is removed from the thermocycler. Upon removal, if not used immediately, the plate was frozen at −20° C.
(§8) A series of probes and primers were used to detect the various mRNA transcripts of the genes of β-Actin (human cell line only), and of CTGF and GAPDH in mouse and human cell lines. All Taqman probes and primers for the experiments here-in described were supplied as pre-validated sets by Applied Biosystems, Inc. (see Table 3).
The assays were performed on an ABI 7900 instrument, according to the manufacturer's instructions. A TaqMan Gene Expression Master Mix (provided in the Cells-to-CT™, Applied Biosystems, Cat # 4399002) was used. The PCR reactions were carried out at 50° C. for 2 min, 95° C. for 20 min followed by 40 cycles at 95° C. for 15 secs and 60° C. for 1 min. […]

CTGF mRNA [2] = test: CTGF mRNA knockdown (Taqman RT-PCR) after siNA transfection of mouse NIH 3T3 cells; assay type: cell-based; details: mouse NIH3T3 cells, 10 nM siNA, 24 hrs, average of 3 experiments, vs non-targeting control
Description: NIH 3T3 (mouse; ATCC cat# CRL-1658): Cells were cultured at 37° C. in the presence of 5% CO2 and grown in Dulbecco's modified Eagle's medium (DMEM) with 4 mM L-glutamine adjusted to contain 1.5 g/L sodium bicarbonate and 4.5 g/L glucose and supplemented with fetal bovine serum at a final concentration of 10%, 100 μg/mL of streptomycin, and 100 U/mL penicillin.
as §1, §2, §3, §4, §5, §6, §7, §8
The assays were performed on an ABI 7900 instrument, according to the manufacturer's instructions. A TaqMan Gene Expression Master Mix (provided in the Cells-to-CT™, Applied Biosystems, Cat # 4399002) was used. […]

| Substance | % KD Human (CTGF mRNA [1]) [%] | % KD Mouse (CTGF mRNA [2]) [%] |
| --- | --- | --- |
| 48074-DC: siNA duplex; sense SEQ ID NO: 113 B GGAGGAAcuAucccAccAA TTB; antisense SEQ ID NO: 114 UUGGuGGGAuAGuuccuccUU (sense GGAGGAACUAUCCCACCAATT; antisense UUGGUGGGAUAGUUCCUCCUU; sense: DNA at AGT, 2'-fluoro at CU, [invAb] at 5' end, 3' end, backbone not given here; antisense: sugars from the 5' end rrrmfmmmmfmmfffffffmm, backbone not given here) | 3 ± 9 | 21 ± 2 |
| 48050-DC: siNA duplex; sense SEQ ID NO: 65 B cuGccuGGuccAGAccAcA TTB; antisense SEQ ID NO: 66 UGUGGucuGGAccAGGcAGUU (sense CUGCCUGGUCCAGACCACATT; antisense UGUGGUCUGGACCAGGCAGUU; sense: DNA at AGT, 2'-fluoro at CU, [invAb] at 5' end, 3' end, backbone not given here; antisense: sugars from the 5' end rrrmmfffmmmffmmmfmmmm, backbone not given here) | 3 ± 18 | −13 ± 5 |
| 48069-DC: siNA duplex; sense SEQ ID NO: 103 B AGuGcAuccGGAcAccuAA TTB; antisense SEQ ID NO: 104 UUAGGuGuccGGAuGcAcuUU (sense AGUGCAUCCGGACACCUAATT; antisense UUAGGUGUCCGGAUGCACUUU; sense: DNA at AGT, 2'-fluoro at CU, [invAb] at 5' end, 3' end, backbone not given here; antisense: sugars from the 5' end rrrmmfmfffmmmfmfmffmm, backbone not given here) | 45 ± 7 | 55 ± 2 |
| 48065-DC: siNA duplex; sense SEQ ID NO: 95 B GccuGucAAGuuuGAGcuu TTB; antisense SEQ ID NO: 96 AAGcucAAAcuuGAcAGGcUU (sense GCCUGUCAAGUUUGAGCUUTT; antisense AAGCUCAAACUUGACAGGCUU; sense: DNA at AGT, 2'-fluoro at CU, [invAb] at 5' end, 3' end, backbone not given here; antisense: sugars from the 5' end rrrfffmmmfffmmfmmmfmm, backbone not given here) | 19 ± 6 | 46 ± 7 |
| 48066-DC: siNA duplex; sense SEQ ID NO: 97 B AcAGuuuAcAcuuGAcAGu TTB; antisense SEQ ID NO: 98 ACUGucAAGuGuAAAcuGuUU (sense ACAGUUUACACUUGACAGUTT; antisense ACUGUCAAGUGUAAACUGUUU; sense: DNA at AGT, 2'-fluoro at CU, [invAb] at 5' end, 3' end, backbone not given here; antisense: sugars from the 5' end rrrmffmmmfmfmmmffmfmm, backbone not given here) | 17 ± 7 | 80 ± 1 |
| 48059-DC: siNA duplex; sense SEQ ID NO: 83 B AcGAAcucAuuAGAcuAuA TTB; antisense SEQ ID NO: 84 UAUAGucuAAuGAGuucGuUU (sense ACGAACUCAUUAGACUAUATT; antisense UAUAGUCUAAUGAGUUCGUUU; sense: DNA at AGT, 2'-fluoro at CU, [invAb] at 5' end, 3' end, backbone not given here; antisense: sugars from the 5' end rrrmmfffmmfmmmfffmfmm, backbone not given here) | 25 ± 9 | 80 ± 4 |
| 48072-DC: siNA duplex; sense SEQ ID NO: 109 B AGuGuGcAcuGccAAAGAu TTB; antisense SEQ ID NO: 110 AUCuuuGGcAGuGcAcAcuUU (sense AGUGUGCACUGCCAAAGAUTT; antisense AUCUUUGGCAGUGCACACUUU; sense: DNA at AGT, 2'-fluoro at CU, [invAb] at 5' end, 3' end, backbone not given here; antisense: sugars from the 5' end rrrfffmmfmmfmfmfmffmm, backbone not given here) | −8 ± 12 | 14 ± 6 |
| 48041-DC: siNA duplex; sense SEQ ID NO: 47 B GAuucccAcccAAuucAAA TTB; antisense SEQ ID NO: 48 UUUGAAuuGGGuGGGAAucUU (sense GAUUCCCACCCAAUUCAAATT; antisense UUUGAAUUGGGUGGGAAUCUU; sense: DNA at AGT, 2'-fluoro at CU, [invAb] at 5' end, 3' end, backbone not given here; antisense: sugars from the 5' end rrrmmmffmmmfmmmmmffmm, backbone not given here) | 73±4 | 13 ± 3 |
| 48067-DC: siNA duplex; sense SEQ ID NO: 99 B GGGucAAGcuGccuGGGAA TTB; antisense SEQ ID NO: 100 UUCccAGGcAGcuuGAcccUU (sense GGGUCAAGCUGCCUGGGAATT; antisense UUCCCAGGCAGCUUGACCCUU; sense: DNA at AGT, 2'-fluoro at CU, [invAb] at 5' end, 3' end, backbone not given here; antisense: sugars from the 5' end rrrffmmmfmmfffmmfffmm, backbone not given here) | −3 ± 31 | 26 ± 5 |
| 48039-DC: siNA duplex; sense SEQ ID NO: 43 B ccuAucAAGuuuGAGcuuu TTB; antisense SEQ ID NO: 44 AAAGcucAAAcuuGAuAGGUU | 81 ± 3 | 21±7 |
| 48080-DC: siNA duplex; sense SEQ ID NO: 125 B AGGAAGAuGuAcGGAGAcA TTB; antisense SEQ ID NO: 126 UGUcuccGuAcAucuuccuUU (sense AGGAAGAUGUACGGAGACATT; antisense UGUCUCCGUACAUCUUCCUUU; sense: DNA at AGT, 2'-fluoro at CU, [invAb] at 5' end, 3' end, backbone not given here; antisense: sugars from the 5' end rrrffffmfmfmfffffffmm, backbone not given here) | 71 ± 2 | 56 ± 2 |
| 48068-DC: siNA duplex; sense SEQ ID NO: 101 B uGGuuucGAGAcAGuuuAc TTB; antisense SEQ ID NO: 102 GUAAAcuGucucGAAAccAUU (sense UGGUUUCGAGACAGUUUACTT; antisense GUAAACUGUCUCGAAACCAUU; sense: DNA at AGT, 2'-fluoro at CU, [invAb] at 5' end, 3' end, backbone not given here; antisense: sugars from the 5' end rrrmmffmffffmmmmffmmm, backbone not given here) | 12 ± 22 | 65 ± 3 |

Reference: patent publication US20120016011A1, “RNA Interference Mediated Inhibition of Connective Tissue Growth Factor (CTGF) Gene Expression Using Short Interfering Nucleic Acid (siNA)” (Merck Sharp & Dohme Corp., priority 2009, published 2012)
